Experimental data reported in patent US20050267029A1, “Compounds which modulate amyloidogenesis and methods for their identification and use” (priority 2004, published 2005).
Read-outs that look alike come from different tables or passages of the source. Square brackets hold non-standard residues; d marks the D form. Ends that are not written are not given here.

What was measured:
J774A.1 cells [1] = conditions: for Effect on amyloidogenesis / amyloid deposition in cell culture (in words): increasing concentrations of test agent
Description: AA-amyloid deposits were detected by histochemical staining with Alcian blue and direct quantitation by Th-T fluorescence.
The ability of a number of potential anti-amyloid compounds to modulate amyloid formation in this cell culture system was tested. To determine the effects of these potential anti-amyloid compounds, cell culture amyloidogenesis was induced in the presence of increasing concentrations of the test agents. Amyloid loads were quantified by Th-T fluorescence.
The murine monocytic cell line J774A.1 (American Type Culture Collection, Manassas, Va.) was cultured in RPMI (Sigma) medium which contained 25 mM HEPES, 15% fetal bovine serum (FBS) and 50 μg/ml penicillin-streptomycin, at 37° C., 5% CO2. The cell stocks were passaged every four days, and the medium replaced every other day. Cells were seeded at a minimal density in 8-well chamber slides (Lab-Tek®, Nalge Nunc International, Naperville, Ill.) in 350 μl medium/well and allowed to reach about 80-90% confluence (3 days), about 2.2×10^5 cells per well. To induce AA-amyloidogenesis, cells were treated for 24 hours with 30 μg of AEF in the culture medium, then the medium was removed and the cells rinsed with fresh medium. To these cells 350 μl of medium was added containing either 0.3 mg/ml HDL-SAA, HDL, 0.05 mg/ml SAA1.1 or SAA2.1, replenished every two days for 7 days. At the end of the treatment period, the cells were either stained with Congo red to visualize the amyloid deposits, or the cells were dissolved in 1% NaOH and assayed for amyloid fibrils by thioflavin-T (Th-T) fluorescence as described by LeVine (Methods Enzymol. 1999 309:274-284).

J774A.1 cells [2] = test: Cell culture amyloidogenesis, amyloid detected by Congo Red (CR) staining; format: cell-based, murine
Description: The murine monocytic cell line J774A.1 (American Type Culture Collection, Manassas, Va.) was cultured in RPMI (Sigma) medium which contained 25 mM HEPES, 15% fetal bovine serum (FBS) and 50 μg/ml penicillin-streptomycin, at 37° C., 5% CO2. The cell stocks were passaged every four days, and the medium replaced every other day. Cells were seeded at a minimal density in 8-well chamber slides (Lab-Tek®, Nalge Nunc International, Naperville, Ill.) in 350 μl medium/well and allowed to reach about 80-90% confluence (3 days), about 2.2×10^5 cells per well. […] At the end of the treatment period, the cells were either stained with Congo red to visualize the amyloid deposits, or the cells were dissolved in 1% NaOH and assayed for amyloid fibrils by thioflavin-T (Th-T) fluorescence as described by LeVine (Methods Enzymol. 1999 309:274-284). […]
Congo Red (CR) staining for amyloid was performed on cells that were rinsed with PBS, fixed for 10 minutes in 70% ethanol, and then stained for 45 minutes with Congo red prepared in alkaline 80% ethanol, NaCl saturated solution. […] Quantitation of amyloid was performed by Th-T fluorescence as described by LeVine (Methods Enzymol. 1999 309:274-284). Fluorescence spectra of Th-T were acquired at 25° C. with a Spectra Max Gemini 96-well plate reader. […] Control spectra of Th-T and cell extract alone were determined. […]

J774 cells = test: HDL-SAA binding/uptake by J774 cells (western blot); format: cell-based, murine; conditions: 50 μM
IAPP = biological target: T1, IAPP (Homo sapiens, UniProt P10997); conditions: cited from earlier work
T1 construct: human islet amyloid polypeptide, a major component of amyloid deposits found in the pancreas
T1 sequence (P10997 34-70 limits assumed): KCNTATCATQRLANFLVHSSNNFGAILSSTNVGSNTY

Aβ1-40 = Aβ1-40 (Homo sapiens, UniProt P05067); conditions: 100 μM, cell-free system; cited from earlier work
Chain of Aβ1-40 (P05067 672-711): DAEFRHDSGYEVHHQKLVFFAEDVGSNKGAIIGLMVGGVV

Molecule: ADQAANEWGRSGKDPNHFRPAGLPEKY [SEQ ID NO:9]
- Effect on amyloidogenesis / amyloid deposition in cell culture (in words) (J774A.1 cells [1]): equivalent inhibitory activity

Molecule: ADQEANAAGASGKDPNYYRPPGLPAKY (OTHER INFORMATION: Synthetic) [27-mer; R83A/H84A/R86A]
- Effect on amyloidogenesis / amyloid deposition in cell culture (in words) (J774A.1 cells [1]): complete loss of inhibitory activity

Molecule: ADQEANRHGRSGKDPNYYRPPGLPAKY ([dA][dD][dQ][dE][dA][dN][dR][dH]G[dR][dS]G[dK][dD][dP][dN][dY][dY][dR][dP][dP]G[dL][dP][dA][dK][dY]) [D-27mer]
- Formation of CR-detectable amyloid (J774A.1 cells [2]; 20 μM, co-incubated with HDL-SAA): prevented the formation of any CR-detectable amyloid

Molecule: ADQEANRHGRSGKDPNYYRPPGLPAKY [27-mer]
- IC50 (J774A.1 cells [1]): 20 nM
- Fold less than the SAA1.1 concentration used to generate AA-amyloid (J774A.1 cells [1]; 70 nM versus 4.2 μM SAA1.1): about 60 fold
- Fold less peptide needed than the IAPP peptides (100 μM) for similar inhibition (J774A.1 cells [1]; 70 nM versus 100 μM): 1400 fold
- IC50 fold lower than that for PVS (J774A.1 cells [1]; 27-mer versus PVS): 25 fold
- Concentration achieving a similar level of inhibition (80 to 85%) of amyloid load (J774A.1 cells [1]; SAA1.1 concentration 4.2 μM): 70 nM
- Effect on HDL-SAA binding to J774 cells (J774 cells): did not interfere with HDL-SAA binding to cells

Molecule: ANRHGRSGKNPNYYRPPGLPAKY (ANRHGRSGKNPNYYRPPGLPAKY-NH2) [23-mer basic]
- Inhibition of CR-detectable amyloid (J774A.1 cells [2]; 2 μM): completely inhibit CR-detectable amyloid

Molecule: FLVHSS [residues 15-20 of human islet amyloid polypeptide]
- Effect on beta-sheet transition and fibril formation of human islet amyloid polypeptide (IAPP): strong enhancers of beta-sheet transition and fibril formation

Molecule: KLVFF [Aβ peptide (residues 16-20)]
- Effect on Aβ1-40 fibril assembly (Aβ1-40): prevent fibril assembly

Molecule: LANFLV [residues 12-17 of human islet amyloid polypeptide]
- Effect on beta-sheet transition and fibril formation of human islet amyloid polypeptide (IAPP): strong enhancers of beta-sheet transition and fibril formation

Molecule: PLPAQGKPGPDHYARNDSYAKNRYERG (OTHER INFORMATION: Synthetic) [SEQ ID NO:8, reference compound]
- Effect on amyloidogenesis / amyloid deposition in cell culture (in words) (J774A.1 cells [1]): complete loss of inhibitory activity

Molecule: WRAYTDMKEAGWKDGDKYFHARGNYDAAQRGPG [33-mer, residues 17-49 of murine SAA1.1]
- Enhancement of amyloid formation (J774A.1 cells [1]; AEF preincubation not used): greater than 50%
- Enhancement of amyloid formation (J774A.1 cells [1]; cells preincubated with AEF): up to 180%
- Effect on amyloidogenesis / amyloid deposition in cell culture (in words) (J774A.1 cells [1]): increasing amyloid load in culture
- Effect on HDL-SAA binding to J774 cells (J774 cells): completely blocked HDL-SAA binding/uptake

Molecule: chondroitin sulfate [reference compound]
- Effect on amyloidogenesis / amyloid deposition in cell culture (in words) (J774A.1 cells [1]): unable to affect amyloid deposition at any concentration tested

Molecule: heparin [reference compound]
- Effect on HDL-SAA binding to J774 cells (J774 cells): prevented HDL-SAA binding to cells

Molecule: polyvinylsulfonate [PVS, reference compound]
- 100% inhibition of amyloidogenesis (IC100) (J774A.1 cells [1]; Th-T fluorescence): 9 µM
- IC50 (J774A.1 cells [1]; read-out: 50% inhibition of amyloidogenesis (IC50), Th-T fluorescence, test agent present throughout HDL-SAA treatments): 500 nM
- Effect on HDL-SAA binding to J774 cells (J774 cells): prevented HDL-SAA binding to J774 cells

B1: SAA1.1: purified delipidated murine serum amyloid A isoform 1.1 (protein, UniProt P05366 20-122, looked up)
Serum amyloid A-1 protein: GFFSFVHEAFQGAGDMWRAYTDMKEANWKNSDKYFHARGNYDAAQRGPGGVWAAEKISDGREAFQEFFGRGHEDTIADQEANRHGRSGKDPNYYRPPGLPDKY
- Amyloid produced, % of HDL-SAA (J774A.1 cells [1]; purified delipidated isoform 50 μg/ml with AEF): 9%

B2: SAA2.1: purified delipidated murine serum amyloid A isoform 2.1 (protein, UniProt P05367 20-122, looked up)
Serum amyloid A-2 protein: GFFSFIGEAFQGAGDMWRAYTDMKEAGWKDGDKYFHARGNYDAAQRGPGGVWAAEKISDARESFQEFFGRGHEDTMADQEANRHGRSGKDPNYYRPPGLPAKY
- Amyloid produced from SAA form (in words) (J774A.1 cells [1]; with AEF, CR stain or Th-T fluorescence): no amyloid was detected
